The values below come from patent publication US20220047569A1, “METHOD AND COMPOUND FOR USE, IN TREATING AND/OR PREVENTING NETOSIS” (Jubilant EpiPad LLC, priority 2020, published 2022).

The experiment deals with Histone H3 Citrullination in Neutrophils. The experiment is described as follows: Citrullination ELISA (Citrullinated Histone H3) in calcium ionophore stimulated neutrophils. It is filed as cell-based. The conditions noted are these: Neutrophil; human neutrophils, 25 μM calcium ionophore, CitH3 ELISA. The method, then: Neutrophils were isolated according to the EasySep Direct Human Neutrophil Isolation Kit. In short, 50 mL of blood sample was drawn in a vacutainer containing K2EDTA from a healthy donor. To the whole blood, the isolation cocktail of 50 μL/mL was added. Then, in the next step 50 μL/mL of RapidSpheres™ was added to the sample. The sample was mixed evenly with the pipette and incubated for 10 minutes at room temperature. After incubation, PBS containing 1 mM EDTA was added at the ratio of 1:1 to the blood. Then the sample tube was incubated for 10 minutes. The enriched cell suspension was transferred into a new tube and RapidSpheres™ were added at 50 μL/mL to this suspension, mixed and incubated for 10 minutes at room temperature. At this step, the enriched cell suspension was carefully collected as a clear fraction into a fresh tube. Then, previous tube was replaced with the fresh tube containing enriched cell suspension. After the final separation, the clear solution of enriched cell suspension was carefully transferred to fresh tube which was ready to use for the experiment. These cells were then subjected to wash twice with plain RPMI 1640 media without Fetal Bovine Serum (FBS) and centrifuged at 1500 rpm for 5 minutes at room temperature. Cell counts were performed on each sample by Invitrogen cell counter. After the cell count, cell density was adjusted according to the experiment and re-suspended in complete RPMI media containing RPMI1640, 2% BSA and 1 mM CaCl2.
Freshly isolated neutrophils from human donor were seeded at a density of 0.5×10^6 cells in 400 μL cell suspension/well in a 24-well plate and cells were pre-incubated with the compound for 30 minutes by adding 50 μL of the 10× concentration to achieve the final 1× concentration of compound (10 μM, 1 μM and 0.1 μM). 1% DMSO was added in control wells. Then, the cells were stimulated in the presence and absence of calcium ionophore by adding 50 μL/well to achieve the final concentration of 25 μM. Upon incubation for 30 minutes with calcium ionophore, S7 nuclease was added to the wells and incubated for 10 minutes to disrupt NET DNA. Following incubation, 10 μL of 1 mM EDTA was added to inactivate nuclease. Cells were scrapped gently and transferred to the tubes, followed by centrifugation at 1500 rpm for 5 minutes. After centrifugation, supernatant was discarded, and 200 μL of lysis buffer containing PBS and 1× Protease inhibitor was added to the tubes. The obtained lysis was then subjected to mechanical shearing using Geno grinder by spin the plate at 2500 rpm for 10 minutes, followed by collection of supernatant and stored at −20° C. or immediately used for ELISA.
ELISA was performed as per Citrullinated Histone H3 ELISA Kit. All the buffer components from the kit were dissolved according to the manufactures protocol. ELISA Buffer Concentrate (10×) (Item No. 400060) and Wash Buffer Concentrate (400×) (Item No. 400060) along with polysorbate 20 (2000×) (Item No. 400035) was diluted to 1× with milliQ water. The standard for use in the ELISA was prepared as follows: • Obtain eight clean test tubes and label them, #1 through #8. Aliquot 4.9 mL of ELISA Buffer into tube #1. • Aliquot 500 μL of ELISA Buffer into the tubes #2-8. […] This tube is considered as blank, the lowest point on the standard curve.
100 μL of standards or diluted sample was added to the appropriate wells on the 96-well plate. Plates were covered with 96-well cover sheet and incubated for two hours at room temperature on an orbital shaker. The samples and standard were removed from the wells and washed four times with Wash Buffer. After the last wash, Anti-Histone H3 HRP Conjugate (Item No. 501441) (10×) stock solution was diluted in 1×ELISA buffer and 100 μL of the HRP Conjugate working solution was added to each well of the plate and incubated for one hour at room temperature on an orbital shaker. […]
(In general: ELISA stands for enzyme-linked immunosorbent assay.)
A word on the IC50: it is the concentration that inhibits the measured activity by half. With `Cc1c(-c2cc3ccccc3n2Cc2ccc(F)cc2)nc2cc(C(=O)N3CCC[C@@H](N)C3)ccn12` [Compound 13, (R)-(3-aminopiperidin-1-yl)(2-(1-(4-fluorobenzyl)-1H-indol-2-yl)-3-methylimidazo[1,2-a]pyridin-7-yl)methanone], the IC50 lay within 100 to 1000 nM. Regarding `N[C@@H]1CCCN(C(=O)c2cc3c4c(c2)nc(-c2cc5cccc(Cl)c5n2Cc2ncccc2F)n4CCO3)C1` [Compound 120, (R)-(3-aminopiperidin-1-yl)(2-(7-chloro-1-((3-fluoropyridin-2-yl)methyl)-1H-indol-2-yl)-3,4-dihydro-5-oxa-1,2a-diazaacenaphthylen-7-yl)methanone], the IC50 was 100 to 1000 nM. With `N[C@@H]1CCCN(C(=O)c2cc3c4c(c2)nc(-c2cc5ccccc5n2Cc2ncccn2)n4CCO3)C1` [Compound 113, (R)-(3-aminopiperidin-1-yl)(2-(1-(pyrimidin-2-ylmethyl)-1H-indol-2-yl)-3,4-dihydro-5-oxa-1,2a-diazaacenaphthylen-7-yl)methanone], the 50% inhibitory concentration (IC50) is < 100 nM. `CCn1c(-c2nc3cc(C(=O)N4CCC[C@@H](N)C4)ccn3c2C)cc2ccc(F)cc21` [Compound 72, (R)-(3-aminopiperidin-1-yl)(2-(1-ethyl-6-fluoro-1H-indol-2-yl)-3-methylimidazo[1,2-a]pyridin-7-yl)methanone]: the IC50 lay in the range of 100 to 1000 nM. On to `COc1ccc(Cn2c(-c3nc4cc(C(=O)N5CCC[C@@H](N)C5)ccn4c3C)cc3ccccc32)cc1` [Compound 12, (R)-(3-aminopiperidin-1-yl)(2-(1-(4-methoxybenzyl)-1H-indol-2-yl)-3-methylimidazo[1,2-a]pyridin-7-yl)methanone], for which the 50% inhibitory concentration (IC50) is < 100 nM. With `Cc1c(-c2cc3cc(F)ccc3n2Cc2ccc(F)cc2)nc2cc(C(=O)N3CCC[C@@H](N)C3)ccn12` [Compound 76, (R)-(3-aminopiperidin-1-yl)(2-(5-fluoro-1-(4-fluorobenzyl)-1H-indol-2-yl)-3-methylimidazo[1,2-a]pyridin-7-yl)methanone], the half-inhibitory concentration (IC50) is > 1000 nM.

Take `Cc1c(-c2cc3ccc(F)cc3n2Cc2cccnc2)nc2cc(C(=O)N3CCC[C@@H](N)C3)ccn12` [Compound 69, (R)-(3-aminopiperidin-1-yl)(2-(6-fluoro-1-(pyridin-3-ylmethyl)-1H-indol-2-yl)-3-methylimidazo[1,2-a]pyridin-7-yl)methanone]: the IC50 was 100 to 1000 nM.

`COc1cc2cc(-c3nc4cc(C(=O)N5CCC[C@@H](N)C5)cc5c4n3CCO5)n(CC3CC3)c2cc1OC` [Compound 103, (R)-(3-aminopiperidin-1-yl)(2-(1-(cyclopropylmethyl)-5,6-dimethoxy-1H-indol-2-yl)-3,4-dihydro-5-oxa-1,2a-diazaacenaphthylen-7-yl)methanone]: the IC50 is < 100 nM. For `N[C@@H]1CCCN(C(=O)c2cc3c4c(c2)nc(-c2cc5ccc(F)cc5n2Cc2ccc(F)cc2)n4CCO3)C1` [Compound 135, (R)-(3-aminopiperidin-1-yl)(2-(6-fluoro-1-(4-fluorobenzyl)-1H-indol-2-yl)-3,4-dihydro-5-oxa-1,2a-diazaacenaphthylen-7-yl)methanone], the IC50 was < 100 nM. For `Cc1cc(C(=O)N2CCC[C@@H](N)C2)cc2nc(-c3cc4ccccc4n3Cc3ccccc3)c(C)n12` [Compound 26, (R)-(3-aminopiperidin-1-yl)(2-(1-benzyl-1H-indol-2-yl)-3,5-dimethylimidazo[1,2-a]pyridin-7-yl)methanone], the IC50 is < 100 nM.

On to `N[C@@H]1CCCN(C(=O)c2cc3c4c(c2)nc(-c2cc5ccccc5n2Cc2cccnc2)n4CCN3)C1` [Compound 152, (R)-(3-aminopiperidin-1-yl)(2-(1-(pyridin-3-ylmethyl)-1H-indol-2-yl)-5,6-dihydro-4H-imidazo[1,5,4-de]quinoxalin-8-yl)methanone], for which the IC50 was < 100 nM. In the case of `N[C@@H]1CCCN(C(=O)c2cc3c4c(c2)nc(-c2cc5cc(/C=C/c6ccccc6)ccc5n2CC2CC2)n4CCO3)C1` [Compound 144, (R,E)-(3-aminopiperidin-1-yl)(2-(1-(cyclopropylmethyl)-5-styryl-1H-indol-2-yl)-3,4-dihydro-5-oxa-1,2a-diazaacenaphthylen-7-yl)methanone], the IC50 is < 100 nM. In the case of `COc1ccc2c(c1)cc(-c1nc3cc(C(=O)N4CCC[C@@H](N)C4)cc4c3n1CCO4)n2CC1CC1` [Compound 146, (R)-(3-aminopiperidin-1-yl)(2-(1-(cyclopropylmethyl)-5-methoxy-1H-indol-2-yl)-3,4-dihydro-5-oxa-1,2a-diazaacenaphthylen-7-yl)methanone], the IC50 was in the range of 100 to 1000 nM.

Regarding `COc1ccc2cc(-c3nc4cc(C(=O)N5CCC[C@@H](N)C5)ccn4c3C)n(Cc3cccnc3)c2c1` [Compound 51, (R)-(3-aminopiperidin-1-yl)(2-(6-methoxy-1-(pyridin-3-ylmethyl)-1H-indol-2-yl)-3-methylimidazo[1,2-a]pyridin-7-yl)methanone], the half-inhibitory concentration (IC50) is > 1000 nM. Under `N[C@@H]1CCCN(C(=O)c2cc3c4c(c2)nc(-c2cc5c(F)cccc5n2CC2CC2)n4CCN3)C1` [Compound 166, (R)-(3-aminopiperidin-1-yl)(2-(1-(cyclopropylmethyl)-4-fluoro-1H-indol-2-yl)-5,6-dihydro-4H-imidazo[1,5,4-de]quinoxalin-8-yl)methanone] stands 100 to 1000 nM. For `COc1ccc(Cn2c(-c3nc4cc(C(=O)N5CCC[C@@H](N)C5)cc5c4n3CCO5)cc3ccccc32)cc1` [Compound 105, (R)-(3-aminopiperidin-1-yl)(2-(1-(4-methoxybenzyl)-1H-indol-2-yl)-3,4-dihydro-5-oxa-1,2a-diazaacenaphthylen-7-yl)methanone], the IC50 lay in the range of 100 to 1000 nM. Regarding `CC(=O)N1CCn2c(-c3cc4ccccc4n3CC3CC3)nc3cc(C(=O)N4CCC[C@@H](N)C4)cc1c32` [Compound 171, (R)-1-(8-(3-aminopiperidine-1-carbonyl)-2-(1-(cyclopropylmethyl)-1H-indol-2-yl)-4,5-dihydro-6H-imidazo[1,5,4-de]quinoxalin-6-yl)ethan-1-one], the concentration for half-maximal inhibition (IC50) was < 100 nM.

As to `Cc1cccc2cc(-c3nc4cc(C(=O)N5CCC[C@@H](N)C5)ccn4c3C)n(CC3CC3)c12` [Compound 30, (R)-(3-aminopiperidin-1-yl)(2-(1-(cyclopropylmethyl)-7-methyl-1H-indol-2-yl)-3-methylimidazo[1,2-a]pyridin-7-yl)methanone], the half-maximal inhibitory concentration (IC50) fell in the range of 100 to 1000 nM.

For the compound `Cc1cc(C(=O)N2CCC[C@@H](N)C2)cc2nc(-c3cc4ccccc4n3CC3CC3)c(C)n12` [Compound 25, (R)-(3-aminopiperidin-1-yl)(2-(1-(cyclopropylmethyl)-1H-indol-2-yl)-3,5-dimethylimidazo[1,2-a]pyridin-7-yl)methanone], the concentration for half-maximal inhibition (IC50) fell in the range of 100 to 1000 nM. Under `Cc1c(-c2cc3ccccc3n2Cc2ccoc2)nc2cc(C(=O)N3CCC[C@@H](N)C3)ccn12` [Compound 37, (R)-(3-aminopiperidin-1-yl)(2-(1-(furan-3-ylmethyl)-1H-indol-2-yl)-3-methylimidazo[1,2-a]pyridin-7-yl)methanone] stands < 100 nM. On to `N[C@@H]1CCCN(C(=O)c2cc3c4c(c2)nc(-c2cc5ccccc5n2Cc2ccccc2F)n4CCN3)C1` [Compound 156, (R)-(3-aminopiperidin-1-yl)(2-(1-(2-fluorobenzyl)-1H-indol-2-yl)-5,6-dihydro-4H-imidazo[1,5,4-de]quinoxalin-8-yl)methanone], for which the IC50 is < 100 nM.
